According to patent publication US5336783A, “Calpain inhibitor cystamidin A and its production” (The Kitasato Institute, priority 1992, dated 1994):
In brackets after ≈: the same amount, converted by molar mass.

How the values were obtained:
[1] = acute toxicity LD50 (ip) in mice; details: mouse, in vivo
B-16 melanoma cells = test: activity against B-16 melanoma cells in vitro; type: cell-based; details: Mus musculus, B16
solubility in solvent = type: physicochemical; details: water, methanol, acetone, chloroform and benzene
[2] = tested on: various kinds of bacteria, yeast and fungi; test: antimicrobial activity (paper disk method); type: cell-based; details: 100 μg/disk
calpain = calpain inhibition using casein as substrate (method by Saito et al.); type: biochemical

For `NC(=O)CCc1cc[nH]c1` [cystamidin A], which LD50 [1] is on record?
The LD50 was > 200 mg/kg.

What about the IC50 (B-16 melanoma cells) of the same molecule?
Its IC50 is > 25 mg/L.

What about the Solubility in solvent (solubility in solvent) of the same molecule?
Its Solubility in solvent is “soluble in water, methanol, acetone, chloroform and benzene”.

And the antimicrobial activity [2]?
Its antimicrobial activity is “no antimicrobial activity”.

And the “IC50 (50% inhibition) against calpain” value (calpain)?
The value was 0.20 mg/L (≈ 1.45 µM).
